Experimental data: US8889950B2, “Repression of AtGLR3.2 increases plant biomass” (The George Washington University, priority 2006, dated 2014)
Entries after “also recorded” stand apart in the source; their conditions may differ.

Columns and labels:
[1] = tested on: AtGLRs (PR and LR elongation of seedlings); assay: Root elongation of seedlings on plates with the iGLR antagonist DNQX; assay type: in vivo, Arabidopsis thaliana
Method: A. Control, B. DNQX treated. Note the lack of LR in DNQX-treated seedlings (b) versus LR in DMSO control. Both plates contained 10 μM KNO3. DNQX is an inhibitor (antagonist) of animal iGLRs and plant GLRs. The lateral root in the DMSO control is indicated by an arrow.
Note glutamate is the natural binding chemical (ligand) to animal iGLRS and puataive ligand for plant GLRs.
The present invention describes the function for AtGLRs in N sensing, absorption (FIG. 3, Forde, B G. 2002. Annu. Rev. Plant Biol. 53:203), assimilation (FIG. 12), plant growth and development (FIG. 11, 13). These claims were validated with pharmacological (FIG. 6-9), physiological (FIG. 10, 11, 13) and immunobot analyses of N assimilatory enzymes (FIG. 12).
(§1) The genetic and physiological analyses described above were complemented with pharmacological studies where the functions of AtGLRs were inhibited with iGLR specific inhibitors/antagonists. […] L-Glu is the bioactive ligand for iGLRs. […] Thus the inhibitors of AtGLRs can block LR elongation drastically and specifically. Furthermore DNQX mediated LR elongation inhibition is reversed by L-Glu.

[2] = tested on: L-Glu induced ion channel activity in plants; details: Mayerhoff et al. 2005. Planta. 222:418; cited from earlier work
DR5::GUS = assay: Histochemical GUS assay in auxin responsive reporter DR5::GUS seedlings; assay type: in vivo, Arabidopsis thaliana
Method: DR5::GUS reporter was grown for 10 days and subjected to histochemical GUS staining for 10 hrs. The development of blue color indicates the detection of the presence of auxins that function in the regulation and formation of lateral roots
To assess the role of auxins in the AtGLR response, the effect of DNQX on auxin levels were evaluated. Auxin responsive reporter plants carrying the expression system DR5::GUS were used in the histochemical assays. […] Similar results were reported in phosphate starvation studies (Nacry et al. 2005 Plant Physiol. 138:2061).

LR primordia = assay: Microscopic analysis of LR primordia (LRP) formation and elongation; assay type: in vivo, Arabidopsis thaliana; details: 400 μM DNQX vs DMSO control
Description: B. DMSO control had fully emerged LR and more LRPs Arrows indicate an LRP that is inhibited, (A) or a fully emerged LR, (B).
as §1

## O=c1[nH]c2cc([N+](=O)[O-])c([N+](=O)[O-])cc2[nH]c1=O [DNQX, 6,7 dinitroquinoxaline-2-3-[1H,4H]-dione]
[1]; DNQX at 400 μM, DMSO control, plates with 10 μM KNO3
  PR and LR growth and elongation: inhibit PR and LR elongation; also recorded: inhibit LR growth and elongation
[1]; coincubation with 10 mM L-glutamate
  Reversal of DNQX mediated inhibition by coincubation with L-Glu: restored to normal growth; also recorded: can be reversed
[1]; seedlings transferred to a media without DNQX
  Reversibility of DNQX mediated PR and LR inhibition: restored to normal growth; also recorded: reversibly and temporarily
[2]
  L-Glu induced ion channel activity in plants: block L-Glu induced ion channel activity
DR5::GUS; 400 μM DNQX, grown 10 days, GUS staining for 10 hrs, vs control plants
  Auxin levels in PR and LR apex/primordia (DR5::GUS expression): higher levels of auxins in PR and LR primordia; also recorded: hyper accumulation of auxins
DR5::GUS; incubated with 400 μM DNQX
  LR and PR elongation of DR5::GUS seedlings: inhibition of LR and PR elongation
LR primordia
  Further elongation of LR primordia: further elongation of primordia is inhibited; also recorded: inhibits number of LRP formed and their elongation
  Number of LRP formed (LR primordia initiation): reduced the number of LR primordia initiation; also recorded: inhibits number of LRP formed
